Results as given in US20230364057A1, “BACTERIAL DNA GYRASE INHIBITORS AND METHODS OF USE THEREOF” (THE FLORIDA INTERNATIONAL UNIVERSITY BOARD OF TRUSTEES, priority 2022, published 2023).
Converted amounts (≈) assume the structure as drawn. Where two headings read alike, the source gives them in different places.

Tests used:
in vitro [1] = conditions: human
in vitro [2] = conditions: mouse
E. coli DNA gyrase [3] = molecular target: T1, E. coli DNA gyrase (Escherichia coli (strain K12), UniProt P0AES4+P0AES6); test: Agarose gel-based DNA gyrase inhibition assay; format: biochemical
Procedure: 100 ng of DNA gyrase was used to supercoil the rx pAB1 in the presence of different concentrations of a gyrase inhibitor. […] Samples were analyzed by electrophoresis in 1% w/v agarose gels followed by ethidium bromide staining and photographed under UV light.

S. aureus (ATCC 14775) = test: Minimum inhibitory concentration, broth microdilution; conditions: Staphylococcus aureus
Procedure: (§1) Antibacterial minimum inhibitory concentrations (MICs) were obtained from three independent experiments using broth microdilution methods in 96-well plates according to Clinical and Laboratory Standards Institute guidelines. Cells were culture from singles colonies in MHIIB medium for 24 h at 37° C. in agitation (200 RPM). The cultures were then diluted using the same media to reach an OD600 of 0.1. Then, 50 µL of the diluted cultures were added to the plates holding 50 µL of serially diluted compounds in MHIIB. The plates were incubated at 37° C. for 20 h. The starting inoculum was fixated to 10^5 colony-forming units per ml.

E. coli DNA gyrase [4] = molecular target: T1, E. coli DNA gyrase; test: E. coli DNA gyrase ATPase assay; format: biochemical
Procedure: E. coli DNA gyrase ATPase assays were performed in 60 µL of 1 ×gyrase ATPase buffer (10 mM Tris.HCl (pH 7.5), 0.2 mM EDTA, 1 mM magnesium chloride, 1 mM DTT, and 2% (w/v) glycerol) containing 50 nM E. coli DNA gyrase, 200 ng rx pAB1, 0.8 mM Phosphoenol pyruvate, 1.2 units of Pyruvate kinase, 1.7 units of lactate dehydrogenase, and 0.4 mM of NADH at 37° C. After the reaction mixtures are incubated on ice for 5 minutes, 2 mM of ATP is added to initiate the reaction. Absorbance at OD340nm is monitored for up to 30 minutes at 37° C. in a spectrophotometer.

MRSA = test: Minimum inhibitory concentration, broth microdilution; conditions: Staphylococcus aureus, MRSA
Procedure: as §1

Mtb DNA gyrase = Mtb DNA gyrase (Mycobacterium tuberculosis (strain ATCC 25618 / H37Rv), UniProt P9WG45+P9WG47); test: Mtb DNA gyrase inhibition assay (gel-based); format: biochemical; conditions: Table 5, Mtb gyrase; read-out: IC50 (µM) Mtb
Procedure: The IC50 against E. coli (A) and Mtb (C) gyrase were determined using the gel-based gyrase inhibition assays. The gyrase mediated DNA cleavage assays (B and D) were performed using pBR322. (A) 229 inhibits E. coli gyrase. Lane 1, rx pAB1. […] Lane 1, rx pAB1. […] 100 µM of CPDs were used. Symbols rx, nk, In, and sc represent relaxed, nicked, linear, and supercoiled DNA, respectively.
Agarose gel-based DNA gyrase inhibition assays were performed in 30 µL of 1 ×gyrase buffer (35 mM Tris-HCl, 24 mM KCl, 4 mM MgCl2, 2 mM DTT, 1.75 mM ATP, 0.1 mg/mL BSA, 6.5% glycerol, pH7.5) containing 400 ng of rx pAB1 at 37° C. 100 ng of DNA gyrase was used to supercoil the rx pAB1 in the presence of different concentrations of a gyrase inhibitor. After 15 minutes of incubation with the inhibitor at 37° C., all reactions were stopped with 1 µL of stop solution (3% SDS and 250 mM EDTA). Samples were analyzed by electrophoresis in 1% w/v agarose gels followed by ethidium bromide staining and photographed under UV light.

Mtb = Mtb whole cell assay (% inhibition, MIC); format: cell-based, Mycobacterium tuberculosis; conditions: Mycobacterium tuberculosis; Table 5 (same values in Table 6 at 20 µM)
E. coli DNA gyrase [5] = molecular target: T1, E. coli DNA gyrase; test: biochemical; format: biochemical
E. coli (ATCC 25922) = test: Minimum inhibitory concentration, broth microdilution; conditions: Escherichia coli, ATCC25922, read-out: Minimum Inhibitory Concentration E. coli, Tables 3a-3c
B. subtilis (ATCC 6633) = test: as above; conditions: Bacillus subtilis, ATCC6633, read-out: Minimum Inhibitory Concentration B.subtilis
Procedure: as §1

E. coli DNA gyrase [6] = molecular target: T1, E. coli DNA gyrase; test: DNA gyrase mediated DNA cleavage assay; format: biochemical; conditions: pBR322
Procedure: 250 ng of supercoiled pBR322 plasmid were incubated with 50 nM of E. coli DNA gyrase in reactions containing 35 mM Tris-HCl, 24 mM KCl, 4 mM MgCl2, 2 mM DTT, 0.1 mg/mL BSA, 6.5% glycerol, and 1.75 mM ATP, in presence of 200 µM of compounds, at 37° C. for 15 min. Then, 0.2% (w/v) of SDS and 0.1 mg/mL proteinase K were added, and samples were incubated at 37° C. for 1 h. […] Samples were examined by electrophoresis in 1% w/v agarose gel containing 0.5 µg/mL ethidium bromide and photographed under UV light.

[7] = molecular target: E. coli DNA topoisomerase IV (Escherichia coli (strain K12), UniProt P0AFI2+P20083); test: E. coli DNA topoisomerase IV relaxation assay (gel-based); format: biochemical; conditions: IC50 Topoisomerase IV Gel-based, Table 8
Procedure: Relaxation assays by E. coli DNA topoisomerase IV and the ATPase assays were performed. […] Lane 1 is supercoiled plasmid pAB1. […] The supercoiled, fluorescently-labeled plasmid pAB1_FL905 was used.

[8] = ATCC14775, read-out: MIC (µM) SA
[9] = ATCC14775, read-out: Minimum Inhibitory Concentration S.aureus
[10] = read-out: Minimum Inhibitory Concentration S.aureus MRSA
[11] = IC50 (50-200 µM), bin of Table 2
[12] = IC50 (µM) EC, Table 5, E. coli gyrase

Sequence of E. coli DNA topoisomerase IV (P0AFI2 whole entry, looked up): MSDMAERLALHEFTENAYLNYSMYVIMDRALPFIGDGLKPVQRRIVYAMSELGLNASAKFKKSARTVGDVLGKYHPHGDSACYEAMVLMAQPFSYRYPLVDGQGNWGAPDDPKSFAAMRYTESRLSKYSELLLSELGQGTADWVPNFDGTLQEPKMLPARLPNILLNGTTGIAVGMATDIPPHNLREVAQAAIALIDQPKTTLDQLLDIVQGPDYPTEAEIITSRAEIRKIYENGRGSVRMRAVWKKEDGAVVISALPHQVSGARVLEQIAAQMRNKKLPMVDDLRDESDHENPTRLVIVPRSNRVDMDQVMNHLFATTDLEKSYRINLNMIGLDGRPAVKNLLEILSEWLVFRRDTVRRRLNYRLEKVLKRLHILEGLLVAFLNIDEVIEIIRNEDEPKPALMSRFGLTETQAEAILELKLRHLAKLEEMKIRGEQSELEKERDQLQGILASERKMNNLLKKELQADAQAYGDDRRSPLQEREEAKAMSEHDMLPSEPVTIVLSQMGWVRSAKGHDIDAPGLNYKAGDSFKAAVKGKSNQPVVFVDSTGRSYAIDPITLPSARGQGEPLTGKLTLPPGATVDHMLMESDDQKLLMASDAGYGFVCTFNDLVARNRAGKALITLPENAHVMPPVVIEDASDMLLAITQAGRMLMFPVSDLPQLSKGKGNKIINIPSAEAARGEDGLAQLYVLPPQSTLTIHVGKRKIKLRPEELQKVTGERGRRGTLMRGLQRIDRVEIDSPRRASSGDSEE
Sequence of E. coli DNA topoisomerase IV (P20083 whole entry, looked up): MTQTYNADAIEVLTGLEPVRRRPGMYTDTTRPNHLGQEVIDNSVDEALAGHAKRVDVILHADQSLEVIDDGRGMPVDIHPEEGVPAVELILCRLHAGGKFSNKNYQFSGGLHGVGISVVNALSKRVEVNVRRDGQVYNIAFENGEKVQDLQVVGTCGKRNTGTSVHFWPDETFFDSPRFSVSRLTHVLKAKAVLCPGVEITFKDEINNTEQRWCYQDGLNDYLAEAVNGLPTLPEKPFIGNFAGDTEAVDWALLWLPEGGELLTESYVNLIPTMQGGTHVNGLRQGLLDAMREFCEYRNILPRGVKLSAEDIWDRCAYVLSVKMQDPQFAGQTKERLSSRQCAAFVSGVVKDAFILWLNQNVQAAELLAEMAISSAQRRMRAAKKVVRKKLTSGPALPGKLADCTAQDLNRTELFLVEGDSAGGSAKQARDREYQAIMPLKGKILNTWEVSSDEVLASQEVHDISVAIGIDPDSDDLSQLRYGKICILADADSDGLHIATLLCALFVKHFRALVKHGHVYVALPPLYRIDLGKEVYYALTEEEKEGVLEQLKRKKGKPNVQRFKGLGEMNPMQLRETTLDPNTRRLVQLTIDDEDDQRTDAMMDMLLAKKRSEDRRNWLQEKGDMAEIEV

## CSc1nc(SCC(=O)O)c2sc3nc(-c4ccccc4)c4c(c3c2n1)CCC4 [Compound 19]
In vitro [1]
  IC50: > 200 µM
In vitro [2]
  IC50: > 200 µM
E. coli DNA gyrase [3]; 50 µM of compounds
  inhibition of E. coli DNA gyrase activities: completely inhibited
E. coli DNA gyrase [3]; 200 µM of compounds
  inhibition of E. coli DNA gyrase activities: completely inhibited

## CC(=O)Nc1ccc(S(=O)(=O)Nc2nc3ccccc3nc2Nc2ccc(C(=O)O)c(O)c2)cc1 [Compound 30]
In vitro [1]
  IC50: > 200 µM
In vitro [2]
  IC50: > 200 µM

## O=C(O)c1cccc(-c2ccc(/C=c3/sc4nc5ccccc5n4c3=O)o2)c1 [Compound 47]
In vitro [1]
  IC50: > 200 µM
In vitro [2]
  IC50: > 200 µM
E. coli DNA gyrase [3]; 50 µM of compounds
  inhibition of E. coli DNA gyrase activities: completely inhibited
E. coli DNA gyrase [3]; 200 µM of compounds
  inhibition of E. coli DNA gyrase activities: completely inhibited

## Cc1c(CCC(=O)O)c(=O)oc2c(C)c3occ(-c4ccc(Br)cc4)c3cc12 [Compound 48]
S. aureus (ATCC 14775); [8]
  MIC: 3.1 µM (≈ 1.37 µg/mL)
S. aureus (ATCC 14775); [9]
  MIC: 3.12 µM (≈ 1.38 µg/mL)
E. coli DNA gyrase [4]
  Ki: 0.15 µM
E. coli DNA gyrase [4]; AB-MECA and gallates at 100 µM
  inhibition of the ATPase activities of E. coli DNA gyrase: ATP competitive inhibitor
MRSA; read-out: MIC (µM) MRSA
  MIC: 3.1 µM (≈ 1.37 µg/mL)
MRSA; [10]
  MIC: 3.12 µM (≈ 1.38 µg/mL)
Mtb DNA gyrase
  IC50: 57 µM
Mtb
  inhibition at 20 µM: 38.6%
E. coli DNA gyrase [3]; 50 µM of compounds
  inhibition of E. coli DNA gyrase activities: completely inhibited
E. coli DNA gyrase [3]; 200 µM of compounds
  inhibition of E. coli DNA gyrase activities: completely inhibited
E. coli DNA gyrase [5]
  inhibition of E. coli DNA gyrase activities: potent bacterial DNA gyrase inhibitors
E. coli DNA gyrase [5]; Table 5, E. coli gyrase, read-out: IC50 (µM) EC
  IC50: 4.2 µM

## CC(=O)Nc1ccc(/C=C2\Sc3ccccc3C2=O)cc1 [Compound 54]
In vitro [1]
  IC50: > 200 µM
In vitro [2]
  IC50: > 200 µM
E. coli DNA gyrase [3]; 200 µM of compounds
  inhibition of E. coli DNA gyrase activities: almost completely inhibited
E. coli DNA gyrase [5]; [11]
  IC50: 50 to 200 µM

## Cc1cc(/C=C2\SC(=S)NC2=O)c(C)n1C [Compound 64]
In vitro [1]
  IC50: > 200 µM
In vitro [2]
  IC50: > 200 µM
E. coli DNA gyrase [3]; 200 µM of compounds
  inhibition of E. coli DNA gyrase activities: completely inhibited
E. coli DNA gyrase [5]; [11]
  IC50: 50 to 200 µM

## COc1cc2ccccc2cc1C(=O)NC(=S)Nc1ccc(C(=O)O)cc1 [Compound 72]
E. coli (ATCC 25922)
  MIC: 100 µM (≈ 38 µg/mL)

## O=C(Nc1cccc(C2=NCCN2)c1)Nc1cccc(C2=NCCN2)c1 [Compound 79]
E. coli (ATCC 25922)
  MIC: 200 µM (≈ 69.7 µg/mL)
S. aureus (ATCC 14775); [9]
  MIC: 200 µM (≈ 69.7 µg/mL)
MRSA; [10]
  MIC: 200 µM (≈ 69.7 µg/mL)
E. coli DNA gyrase [5]; [11]
  IC50: 50 to 200 µM
B. subtilis (ATCC 6633)
  MIC: 100 µM (≈ 34.8 µg/mL)

## O=C(O)c1ccc(NN=CC=Cc2ccc([N+](=O)[O-])o2)cc1 [Compound 110]
In vitro [1]
  IC50: > 200 µM
In vitro [2]
  IC50: > 200 µM
E. coli DNA gyrase [3]; 50 µM of compounds
  inhibition of E. coli DNA gyrase activities: potently inhibited
E. coli DNA gyrase [5]; [11]
  IC50: 50 to 200 µM

## Cc1c(CCC(=O)O)c(=O)oc2c(C)c3occ(-c4ccccc4)c3cc12 [Compound 121]
S. aureus (ATCC 14775); [8]
  MIC: 3.1 µM (≈ 1.12 µg/mL)
S. aureus (ATCC 14775); [9]
  MIC: 3.12 µM (≈ 1.13 µg/mL)
MRSA; read-out: MIC (µM) MRSA
  MIC: 3.1 µM (≈ 1.12 µg/mL)
MRSA; [10]
  MIC: 3.12 µM (≈ 1.13 µg/mL)
Mtb DNA gyrase
  IC50: 58 µM
Mtb
  inhibition at 20 µM: 36.7%
E. coli DNA gyrase [5]; [12]
  IC50: 28 µM
B. subtilis (ATCC 6633)
  MIC: 50 µM (≈ 18.1 µg/mL)

## Cc1c(CCC(=O)O)c(=O)oc2c(C)c3occ(-c4ccc(F)cc4)c3cc12 [Compound 123]
S. aureus (ATCC 14775); [8]
  MIC: 1.6 µM (≈ 0.609 µg/mL)
S. aureus (ATCC 14775); [9]
  MIC: 1.56 µM (≈ 0.593 µg/mL)
MRSA; read-out: MIC (µM) MRSA
  MIC: 1.6 µM (≈ 0.609 µg/mL)
MRSA; [10]
  MIC: 1.56 µM (≈ 0.593 µg/mL)
Mtb DNA gyrase
  IC50: 34 µM
Mtb
  inhibition at 20 µM: 31.8%
E. coli DNA gyrase [3]; 50 µM of compounds
  inhibition of E. coli DNA gyrase activities: completely inhibited
E. coli DNA gyrase [5]; [12]
  IC50: 28.1 µM
B. subtilis (ATCC 6633)
  MIC: 6.25 µM (≈ 2.38 µg/mL)

## O=C(O)c1ccc(/N=N/C2C(O)=Nc3ccc(F)cc32)cc1 (stereo not drawn) [Compound 127]
S. aureus (ATCC 14775); [9]
  MIC: 50 µM (≈ 15 µg/mL)
In vitro [1]
  IC50: > 200 µM
MRSA; [10]
  MIC: 50 µM (≈ 15 µg/mL)
In vitro [2]
  IC50: > 200 µM
E. coli DNA gyrase [3]; 50 µM of compounds
  inhibition of E. coli DNA gyrase activities: completely inhibited
B. subtilis (ATCC 6633)
  MIC: 25 µM (≈ 7.48 µg/mL)

## Cc1cccc2c1N=C(O)C2/N=N/c1ccc(C(=O)O)cc1 (stereo not drawn) [Compound 128]
S. aureus (ATCC 14775); [9]
  MIC: 50 µM (≈ 14.8 µg/mL)
In vitro [1]
  IC50: > 200 µM
MRSA; [10]
  MIC: 50 µM (≈ 14.8 µg/mL)
In vitro [2]
  IC50: > 200 µM
E. coli DNA gyrase [3]; 50 µM of compounds
  inhibition of E. coli DNA gyrase activities: completely inhibited
B. subtilis (ATCC 6633)
  MIC: 25 µM (≈ 7.38 µg/mL)

## CCn1c(N)[n+](CC(=O)Nc2ccc(SC(F)F)cc2)c2ccccc21.[Cl-] [Compound 135]
E. coli (ATCC 25922)
  MIC: 200 µM
S. aureus (ATCC 14775); [9]
  MIC: 50 µM
MRSA; [10]
  MIC: 50 µM
E. coli DNA gyrase [3]; 50 µM of compounds
  inhibition of E. coli DNA gyrase activities: completely inhibited
E. coli DNA gyrase [5]; IC50 (15-[…] µM), bin of Table 2
  IC50: 15 to 25 µM
B. subtilis (ATCC 6633)
  MIC: 50 µM

## COc1cc(/C=N/N=c2\[nH]c3ccccc3s2)cc([N+](=O)[O-])c1O [Compound 178]
In vitro [1]
  IC50: > 200 µM
In vitro [2]
  IC50: > 200 µM
E. coli DNA gyrase [3]; 50 µM of compounds
  inhibition of E. coli DNA gyrase activities: completely inhibited

## CCN(CC)c1ccc(C=C2SC(=S)NC2=O)cc1 [Compound 212]
In vitro [1]
  IC50: > 200 µM
In vitro [2]
  IC50: > 200 µM
E. coli DNA gyrase [3]; 50 µM of compounds
  inhibition of E. coli DNA gyrase activities: completely inhibited
E. coli DNA gyrase [3]; 200 µM of compounds
  inhibition of E. coli DNA gyrase activities: completely inhibited
E. coli DNA gyrase [5]; IC50 ([…]-50 µM), bin of Table 2
  IC50: 25 to 50 µM

## O=C1C=C(NCCc2cc(Br)c(O)c(Br)c2)C(=O)c2ncccc21 [Compound 232, 7-((2-(3,5-Dibromo-4-hydroxyphenyl)ethyl)amino)-5,8-quinolinedione]
E. coli DNA gyrase [6]
  E. coli DNA gyrase-mediated DNA breaks and nicking: cause DNA nicking
E. coli DNA gyrase [3]; 50 µM of compounds
  inhibition of E. coli DNA gyrase activities: inhibited
E. coli DNA gyrase [3]; 200 µM of compounds
  inhibition of E. coli DNA gyrase activities: completely inhibited
E. coli DNA gyrase [5]; [11]
  IC50: 50 to 200 µM

## O=C(O)c1cc(O)c(O)c(O)c1 [gallic acid]
[7]
  IC50: > 500 µM
E. coli DNA gyrase [3]; Table 8, read-out: IC50 Gyrase Gel-based
  IC50: > 500 µM
E. coli DNA gyrase [5]
  inhibition of E. coli DNA gyrase activities: does not inhibit E. coli DNA gyrase up to 500 µM
